What was measured:
[1] = target: T1, recombinant full-length WRN protein (1-1432) (Homo sapiens, UniProt Q14191); assay: WRN unwinding activity, fluorogenic 384-well assay (Example A); type: biochemical; details: WRN unwinding activity, 4 hr; Table 2; read-out: 4 hr UNW pIC50 (converted)
T1 construct: recombinant full-length WRN protein (1-1432)
How it was run: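 200 pM enzyme (2× stock) preincubated with compound 4 h at ambient temperature, then 200 μM ATP and 12 nM quenched TAMRA-labelled dsDNA (2× stocks) added for 60 min; EDTA-quenched. Buffer 25 mM Tris pH 8.0, 5 mM NaCl, 2 mM MgCl2. Fluorescence at 525/598 nm; pIC50 from four-parameter fit.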

[2] = system: SW48 human colorectal cancer cells (MSI-H cancer cells); assay: SW48 cell viability, CellTiter-Glo, 120 hours (Example B); details: Homo sapiens, SW48, 120 h, read-out: SW48 pCC50, SW48 cell viability, 120 hours incubation (converted); Table 2

T1 sequence (Q14191 whole entry): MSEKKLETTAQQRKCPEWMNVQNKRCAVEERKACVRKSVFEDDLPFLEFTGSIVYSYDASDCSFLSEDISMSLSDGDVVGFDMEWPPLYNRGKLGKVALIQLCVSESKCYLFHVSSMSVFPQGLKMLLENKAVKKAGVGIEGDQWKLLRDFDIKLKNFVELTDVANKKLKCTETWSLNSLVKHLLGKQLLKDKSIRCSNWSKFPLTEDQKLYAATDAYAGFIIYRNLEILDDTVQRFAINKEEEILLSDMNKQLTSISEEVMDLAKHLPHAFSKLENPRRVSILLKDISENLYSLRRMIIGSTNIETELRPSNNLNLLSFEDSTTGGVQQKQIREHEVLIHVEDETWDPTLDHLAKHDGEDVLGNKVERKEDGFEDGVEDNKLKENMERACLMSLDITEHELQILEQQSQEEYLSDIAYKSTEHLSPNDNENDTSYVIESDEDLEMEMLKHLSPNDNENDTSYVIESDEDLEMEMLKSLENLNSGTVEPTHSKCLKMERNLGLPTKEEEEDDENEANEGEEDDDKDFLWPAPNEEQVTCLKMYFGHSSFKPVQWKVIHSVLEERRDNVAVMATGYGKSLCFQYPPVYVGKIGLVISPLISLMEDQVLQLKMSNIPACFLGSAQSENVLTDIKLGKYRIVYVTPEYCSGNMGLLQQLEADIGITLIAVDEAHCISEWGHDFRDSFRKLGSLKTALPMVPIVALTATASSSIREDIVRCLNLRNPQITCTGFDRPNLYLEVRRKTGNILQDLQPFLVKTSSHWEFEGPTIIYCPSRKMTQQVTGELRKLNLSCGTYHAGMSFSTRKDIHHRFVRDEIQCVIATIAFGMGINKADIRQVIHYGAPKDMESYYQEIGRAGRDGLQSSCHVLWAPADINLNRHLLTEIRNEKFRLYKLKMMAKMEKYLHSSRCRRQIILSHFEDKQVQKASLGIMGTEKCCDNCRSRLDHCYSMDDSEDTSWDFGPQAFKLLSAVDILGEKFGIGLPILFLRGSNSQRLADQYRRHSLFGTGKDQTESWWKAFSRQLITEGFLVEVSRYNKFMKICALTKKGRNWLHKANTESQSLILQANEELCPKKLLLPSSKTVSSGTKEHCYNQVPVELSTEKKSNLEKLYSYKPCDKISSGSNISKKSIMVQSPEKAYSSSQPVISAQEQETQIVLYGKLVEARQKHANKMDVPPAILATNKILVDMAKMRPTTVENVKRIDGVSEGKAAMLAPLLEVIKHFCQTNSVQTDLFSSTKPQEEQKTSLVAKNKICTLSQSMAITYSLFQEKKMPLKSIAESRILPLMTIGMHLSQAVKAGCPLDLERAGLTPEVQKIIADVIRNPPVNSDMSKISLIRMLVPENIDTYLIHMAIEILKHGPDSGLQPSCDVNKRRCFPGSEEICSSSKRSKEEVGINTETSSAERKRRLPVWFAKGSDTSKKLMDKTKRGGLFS

| SMILES | IC50 [1] | CC50 [2] |
| --- | --- | --- |
| Cc1nc2cc(S(=O)(=O)N(C)c3ccc([C@@H]4C[C@H](OC[C@H]5CCOC5)C[C@H](C(=O)Nc5ccc(C(F)(F)F)cc5F)[C@H]4C(=O)O)cc3)ccc2n1C (stereo in doubt) [Example 318, (1R*,2R*,4R*,6S*)-2-((2-fluoro-4-(trifluoromethyl)phenyl)carbamoyl)-4-(((S)-tetrahydrofuran-3-yl)methoxy)-6-(4-((N,1,2-trimethyl-1H-benzo[d]imidazole)-5-sulfonamido)phenyl)cyclohexane-1-carboxylic acid] | 0.2 µM | 12.6 µM |
| Cc1nc2cc(S(=O)(=O)N(C)c3ccc([C@@H]4C[C@H](OC[C@@H]5CCOC5)C[C@H](C(=O)Nc5ccc(C(F)(F)F)cc5F)[C@H]4C(=O)O)cc3)ccc2n1C (stereo in doubt) [Example 319, (1R*,2R*,4R*,6S*)-2-((2-fluoro-4-(trifluoromethyl)phenyl)carbamoyl)-4-(((R)-tetrahydrofuran-3-yl)methoxy)-6-(4-((N,1,2-trimethyl-1H-benzo[d]imidazole)-5-sulfonamido)phenyl)cyclohexane-1-carboxylic acid] | 0.316 µM | 12.6 µM |
| Cc1nc2cc(S(=O)(=O)N(C)c3ccc([C@@H]4C[C@H](OC[C@H]5COCCO5)C[C@H](C(=O)Nc5ccc(C(F)(F)F)cc5F)[C@H]4C(=O)O)cc3)ccc2n1C (stereo in doubt) [Example 328, (1R*,2R*,4R*,6S*)-4-(((R)-1,4-dioxan-2-yl)methoxy)-2-((2-fluoro-4-(trifluoromethyl)phenyl)carbamoyl)-6-(4-((N,1,2-trimethyl-1H-benzo[d]imidazole)-5-sulfonamido)phenyl)cyclohexane-1-carboxylic acid] | 0.126 µM | 15.8 µM |
| Cc1nc2cc(S(=O)(=O)N(C)c3ccc([C@@H]4C[C@H](N5CCC[C@@H](F)C5)C[C@H](C(=O)Nc5ccc(C(F)(F)F)cc5F)[C@H]4C(=O)O)cc3)ccc2n1C (stereo in doubt) [Example 345, rel-(1R*,2R*,4R*,6S*)-2-((2-fluoro-4-(trifluoromethyl)phenyl)carbamoyl)-4-((R)-3-fluoropiperidin-1-yl)-6-(4-((N,1,2-trimethyl-1H-benzo[d]imidazole)-5-sulfonamido)phenyl)cyclohexane-1-carboxylic acid] | 0.398 µM | 12.6 µM |
| Cc1nc2cc(S(=O)(=O)N(C)c3ccc([C@@H]4C[C@H](OCC5CCOCC5)C[C@H](C(=O)Nc5ccc(C(F)(F)F)cc5F)[C@H]4C(=O)O)cc3)ccc2n1C (stereo in doubt) [Example 354, rel-(1R,2R,4R,6S)-2-((2-fluoro-4-(trifluoromethyl)phenyl)carbamoyl)-4-((tetrahydro-2H-pyran-4-yl)methoxy)-6-(4-((N,1,2-trimethyl-1H-benzo[d]imidazole)-5-sulfonamido)phenyl)cyclohexane-1-carboxylic acid] | 1.58 µM | 20 µM |
| Cc1nc2cc(S(=O)(=O)N(C)c3ccc([C@@H]4C[C@H](OCC5(C)COC5)C[C@H](C(=O)Nc5ccc(C(F)(F)F)cc5F)[C@H]4C(=O)O)cc3)ccc2n1C (stereo in doubt) [Example 366, rel-(1R,2R,4R,6S)-2-((2-fluoro-4-(trifluoromethyl)phenyl)carbamoyl)-4-((3-methyloxetan-3-yl)methoxy)-6-(4-((N,1,2-trimethyl-1H-benzo[d]imidazole)-5-sulfonamido)phenyl)cyclohexane-1-carboxylic acid] | 0.126 µM | 15.8 µM |
| Cc1nc2cc(S(=O)(=O)N(C)c3ccc([C@@H]4C[C@@H](N5CC[C@H](F)C5)C[C@H](C(=O)Nc5ccc(C(F)(F)F)cc5F)[C@H]4C(=O)O)cc3)ccc2n1C (stereo in doubt) [Example 379, rel-(1R*,2R*,4S*,6S*)-2-((2-fluoro-4-(trifluoromethyl)phenyl)carbamoyl)-4-((S)-3-fluoropyrrolidin-1-yl)-6-(4-((N,1,2-trimethyl-1H-benzo[d]imidazole)-5-sulfonamido)phenyl)cyclohexane-1-carboxylic acid] | 0.501 µM | 20 µM |
| Cc1nc2cc(S(=O)(=O)N(C)c3ccc([C@@H]4C[C@@H](N5CC[C@@H](F)C5)C[C@H](C(=O)Nc5ccc(C(F)(F)F)cc5F)[C@H]4C(=O)O)cc3)ccc2n1C (stereo in doubt) [Example 384, rel-(1R*,2R*,4S*,6S*)-2-((2-fluoro-4-(trifluoromethyl)phenyl)carbamoyl)-4-((R)-3-fluoropyrrolidin-1-yl)-6-(4-((N,1,2-trimethyl-1H-benzo[d]imidazole)-5-sulfonamido)phenyl)cyclohexane-1-carboxylic acid] | 0.398 µM | 25.1 µM |
| Cc1nc2cc(S(=O)(=O)N(C)c3ccc([C@@H]4C[C@@]5(CCCO5)C[C@H](C(=O)Nc5ccc(C(F)(F)F)cc5F)[C@H]4C(=O)O)cc3)ccc2n1C (stereo in doubt) [Example 387, rel-(5R,7R,8R,9S)-7-((2-fluoro-4-(trifluoromethyl)phenyl)carbamoyl)-9-(4-((N,1,2-trimethyl-1H-benzo[d]imidazole)-5-sulfonamido)phenyl)-1-oxaspiro[4.5]decane-8-carboxylic acid] | 0.0631 µM | 10 µM |
| O=C(O)[C@@H]1[C@@H](c2ccc(-c3cccc4[nH]ncc34)cc2)CCC[C@H]1C(=O)Nc1ccc(C(F)(F)F)cc1F [Example 1, (1R,2S,6R)-2-(4-(1H-indazol-4-yl)phenyl)-6-((2-fluoro-4-(trifluoromethyl)phenyl)carbamoyl)cyclohexane-1-carboxylic acid] | 1 µM | 10 µM |
| O=C(O)[C@@H]1[C@@H](c2ccc(-c3cccc4cnccc34)cc2)CCC[C@H]1C(=O)Nc1ccc(C(F)(F)F)cc1F [Example 2, (1R,2R,6S)-2-((2-fluoro-4-(trifluoromethyl)phenyl)carbamoyl)-6-(4-(isoquinolin-5-yl)phenyl)cyclohexane-1-carboxylic acid] | 1.26 µM | 12.6 µM |
| Cn1nccc1-c1ccc([C@H]2CCC[C@@H](C(=O)Nc3ccc(C(F)(F)F)cc3F)[C@@H]2C(=O)O)cc1 [Example 3, (1R,2R,6S)-2-((2-fluoro-4-(trifluoromethyl)phenyl)carbamoyl)-6-(4-(1-methyl-1H-pyrazol-5-yl)phenyl)cyclohexane-1-carboxylic acid] | 0.00398 µM | 10 µM |
| O=C(O)[C@@H]1[C@@H](c2ccc(-c3cncnc3)cc2)CCC[C@H]1C(=O)Nc1ccc(C(F)(F)F)cc1F [Example 6, (1R,2R,6S)-2-((2-fluoro-4-(trifluoromethyl)phenyl)carbamoyl)-6-(4-(pyrimidin-5-yl)phenyl)cyclohexane-1-carboxylic acid] | 0.00631 µM | 10 µM |
| O=C(O)[C@@H]1[C@@H](c2ccc(-c3cccnc3)cc2)CCC[C@H]1C(=O)Nc1ccc(C(F)(F)F)cc1F [Example 8, (1R,2R,6S)-2-((2-fluoro-4-(trifluoromethyl)phenyl)carbamoyl)-6-(4-(pyridin-3-yl)phenyl)cyclohexane-1-carboxylic acid] | 0.00398 µM | 7.94 µM |
| O=C(O)[C@@H]1[C@@H](c2ccc(-c3ccco3)cc2)CCC[C@H]1C(=O)Nc1ccc(C(F)(F)F)cc1F [Example 9, (1R,2R,6S)-2-((2-fluoro-4-(trifluoromethyl)phenyl)carbamoyl)-6-(4-(furan-2-yl)phenyl)cyclohexane-1-carboxylic acid] | 0.794 µM | 25.1 µM |
| O=C(O)[C@@H]1[C@@H](c2ccc(-c3ccoc3)cc2)CCC[C@H]1C(=O)Nc1ccc(C(F)(F)F)cc1F [Example 10, (1R,2R,6S)-2-((2-fluoro-4-(trifluoromethyl)phenyl)carbamoyl)-6-(4-(furan-3-yl)phenyl) cyclohexane-1-carboxylic acid] | 0.1 µM | 12.6 µM |
| O=C(O)[C@@H]1[C@@H](c2ccc(-c3ccccc3)cc2)CCC[C@H]1C(=O)Nc1ccc(C(F)(F)F)cc1F [Example 11, (1R,2S,6R)-2-([1,1′-biphenyl]-4-yl)-6-((2-fluoro-4-(trifluoromethyl)phenyl)carbamoyl)cyclohexane-1-carboxylic acid] | 0.158 µM | 15.8 µM |
| O=C(O)[C@@H]1[C@@H](c2ccc(-c3cccc4c3COC4)cc2)CCC[C@H]1C(=O)Nc1ccc(C(F)(F)F)cc1F [Example 15, (1R,2S,6R)-2-(4-(1,3-dihydroisobenzofuran-4-yl)phenyl)-6-((2-fluoro-4-(trifluoromethyl)phenyl)carbamoyl)cyclohexane-1-carboxylic acid] | 0.158 µM | 20 µM |
| O=C(O)[C@@H]1[C@@H](c2ccc(-c3ccnnc3)cc2)CCC[C@H]1C(=O)Nc1ccc(C(F)(F)F)cc1F [Example 18, (1R,2R,6S)-2-((2-fluoro-4-(trifluoromethyl)phenyl)carbamoyl)-6-(4-(pyridazin-4-yl)phenyl)cyclohexane-1-carboxylic acid] | 0.00501 µM | 12.6 µM |
| Nc1ccccc1-c1ccc([C@H]2CCC[C@@H](C(=O)Nc3ccc(C(F)(F)F)cc3F)[C@@H]2C(=O)O)cc1 [Example 24, (1R,2S,6R)-2-(2′-amino-[1,1′-biphenyl]-4-yl)-6-((2-fluoro-4-(trifluoromethyl)phenyl)carbamoyl)cyclohexane-1-carboxylic acid] | 0.0794 µM | 15.8 µM |
| O=C(O)[C@@H]1[C@@H](c2ccc(-c3ccc(F)nc3)cc2)CCC[C@H]1C(=O)Nc1ccc(C(F)(F)F)cc1F [Example 25, (1R,2R,6S)-2-((2-fluoro-4-(trifluoromethyl)phenyl)carbamoyl)-6-(4-(6-fluoropyridin-3-yl)phenyl)cyclohexane-1-carboxylic acid] | 0.00158 µM | 5.01 µM |
